Results as given in paper PMC10283505, “CVM-1118 (foslinanib), a 2-phenyl-4-quinolone derivative, promotes apoptosis and inhibits vasculogenic mimicry via targeting TRAP1” (Pathology and Oncology Research, 2023).

How the values were obtained:
[1] = system: HT-29 colorectal adenocarcinoma cells; test: Flow cytometry cell cycle analysis (PI); format: cell-based, human; details: 48 h
Description: This assay was conducted by ProQinase GmbH (Freiburg, Germany). HT-29 colorectal adenocarcinoma cells were seeded at 150,000 cells/well in 6-well cell culture plates in 5 mL complete medium and incubated at 37°C overnight. On the day of the assay, CVM-1118 at various concentrations or 0.1% DMSO were added to the cells. After 48 h incubation, cells were harvested including the supernatant, fixed in 80% methanol, and stored at −20°C overnight. The next day, cells were rehydrated in PBS for 30 min and treated with RNAse A (100 μg/mL) and propidium iodide (PI) (25 μg/mL). Cell cycle distribution was analyzed by flow cytometry (FACSCalibur, BD Biosciences), assessing approximately 10,000 events. Detection of DNA intercalated with PI was done by fluorescence detector FL3, in which amplification was set in such a manner that the first amplitude peak of the FL3 signal (FL3-A) in untreated cells (corresponding to the G1 cell population) was found at approximately 200 units. For analysis, events were plotted as histogram. The peak at ∼200 units was defined as cells in G1, events below the G1-peak were considered apoptotic cells (sub-G1), and events at ∼400 units as G2/M cells. All signals in between 200 and 400 units were defined as cells in S-Phase, and those beyond 400 units as endoreduplicated cells (endoR).

Notch4 ICD = test: qPCR analysis of Notch4 expression; format: cell-based, human; details: C8161, 10 nM, 8–72 h
Description: For the qPCR analysis of Nodal and Notch expression, total RNA was isolated from cells using the PerfectPure RNA Cell Isolation kit (5Prime) and then reverse-transcribed using 1 μg RNA, RT master mix cocktail and MMLV reverse transcriptase. qPCR was performed on a 7500 Real-Time PCR System (Life Technologies) using manufacturer recommended protocol. TaqMan gene expression human primer/probe sets (Applied Biosystems) utilized were Nodal (Hs00250630_s1) and Notch4 (Hs00270200_m1). Target gene expression was normalized to appropriate house-keeping genes (e.g., RPLP0 or GAPDH). Data was analyzed using Life Technologies Sequence Detection Software.

A498 = test: NCI 60 cytotoxicity screening; format: cell-based; details: Homo sapiens; A498, Renal
Catenin β-1 = molecular target: T1, Catenin β-1 (Homo sapiens, UniProt P35222); test: Surface plasmon resonance (Biacore); format: binding; details: Catenin β-1, SPR
T1 sequence (P35222 1-781): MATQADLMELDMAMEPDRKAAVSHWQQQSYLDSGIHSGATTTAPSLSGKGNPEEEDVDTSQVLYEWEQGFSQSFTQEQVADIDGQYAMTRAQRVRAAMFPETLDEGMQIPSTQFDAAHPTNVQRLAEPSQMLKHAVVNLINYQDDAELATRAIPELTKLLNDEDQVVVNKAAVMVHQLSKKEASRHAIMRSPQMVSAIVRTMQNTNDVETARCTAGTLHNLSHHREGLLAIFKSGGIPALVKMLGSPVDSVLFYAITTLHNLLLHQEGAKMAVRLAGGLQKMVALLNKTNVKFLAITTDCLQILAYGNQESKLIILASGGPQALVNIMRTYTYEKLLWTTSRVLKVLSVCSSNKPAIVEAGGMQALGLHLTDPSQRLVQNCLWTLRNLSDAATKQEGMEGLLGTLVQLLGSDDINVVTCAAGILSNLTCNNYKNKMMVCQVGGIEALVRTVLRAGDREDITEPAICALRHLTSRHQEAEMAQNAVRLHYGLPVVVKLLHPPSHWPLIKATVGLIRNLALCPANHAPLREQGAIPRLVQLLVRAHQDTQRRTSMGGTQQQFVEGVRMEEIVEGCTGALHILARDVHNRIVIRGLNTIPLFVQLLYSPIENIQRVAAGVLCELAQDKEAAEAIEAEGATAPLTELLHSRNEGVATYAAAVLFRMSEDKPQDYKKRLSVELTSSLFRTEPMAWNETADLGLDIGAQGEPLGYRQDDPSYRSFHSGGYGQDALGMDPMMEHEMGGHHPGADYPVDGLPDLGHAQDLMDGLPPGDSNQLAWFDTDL

Structure (SMILES): COc1ccc2[nH]c(-c3cccc(F)c3)cc(=O)c2c1OP(=O)(O)O [CVM-1118]
- Cell cycle profile, EndoR ([1]; HT-29, 10 nM): 1.28%
- Cell cycle profile, G1 phase ([1]; HT-29, 10 nM): 49.34%
- Cell cycle profile, G2/M phase ([1]; HT-29, 10 nM): 25.66%
- Cell cycle profile, S phase ([1]; HT-29, 10 nM): 23.02%
- Cell cycle profile, Sub-G1 ([1]; HT-29, 10 nM): 1.24%
- Cell cycle profile, EndoR ([1]; HT-29, 30 nM): 1.23%
- Cell cycle profile, G1 phase ([1]; HT-29, 30 nM): 50.63%
- Cell cycle profile, G2/M phase ([1]; HT-29, 30 nM): 23.71%
- Cell cycle profile, S phase ([1]; HT-29, 30 nM): 23.30%
- Cell cycle profile, Sub-G1 ([1]; HT-29, 30 nM): 1.44%
- Cell cycle profile, EndoR ([1]; HT-29, 100 nM): 2.84%
- Cell cycle profile, G1 phase ([1]; HT-29, 100 nM): 16.27%
- Cell cycle profile, G2/M phase ([1]; HT-29, 100 nM): 43.42%
- Cell cycle profile, S phase ([1]; HT-29, 100 nM): 10.90%
- Cell cycle profile, Sub-G1 ([1]; HT-29, 100 nM): 26.96%
- Cell cycle profile, EndoR ([1]; HT-29, 300 nM): 2.45%
- Cell cycle profile, G1 phase ([1]; HT-29, 300 nM): 1.58%
- Cell cycle profile, G2/M phase ([1]; HT-29, 300 nM): 50.77%
- Cell cycle profile, S phase ([1]; HT-29, 300 nM): 23.63%
- Cell cycle profile, Sub-G1 ([1]; HT-29, 300 nM): 22.46%
- expression of Notch4 ICD (mRNA) (Notch4 ICD): decreased

Structure (SMILES): COc1ccc2[nH]c(-c3cccc(F)c3)cc(=O)c2c1O [CVM-1125]
- GI50 (A498): 24.8 nM
- Association (ka) (Catenin β-1): No interaction
- Dissociation (kd) (Catenin β-1): No interaction
- KD (kd/ka) (Catenin β-1): No interaction
